Active and inactive are the calls of the source. How the calls were made is not given here.
Assay: cellular cytoskeleton assembly phenotype modulators – imaging, high-content imaging, retest and dose response, confirmation (AID 1249);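 further: compound exposure lasted 24 h before fixation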;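 on inhibition: plate controls were untreated cells for no effect and reference compound treated cells for full effect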
Settings: cell-based imaging, cytoskeleton assembly phenotype, high content; at 2 µM; stronger effect = higher value

Compound	inhibition
CC1=C([N+](=O)[O-])C(c2ccccc2)C2=C(N1)c1ccccc1C2=O (stereo unspecified)	8.7% (inactive)
CC(N)Cc1ccccc1Sc1ccc(O)cc1 (stereo unspecified)	5.2% (inactive)
CC(=O)NC1CC2CCCC(C1)N2 (stereo unspecified)	-18.6% (inactive)
COc1ccc(C(C)(C)C)cc1S(=O)(=O)N1CCN(C)CC1	-1.6% (inactive)
COc1ccc(S(=O)(=O)Nc2nc3n(n2)C(c2ccc(Cl)cc2)CC(=O)N3)cc1 (stereo unspecified)	4.9% (inactive)
Cc1ccc(C(=O)CSc2nsc(C)c2C#N)cc1	-11.1% (inactive)
CC1Cc2cc(-c3csc(NC(=O)Cc4cccs4)n3)ccc2N1S(C)(=O)=O (stereo unspecified)	-0.1% (inactive)
CCOc1cc(NC(=O)c2ccco2)c(OCC)cc1NC(=O)CCC(=O)NCc1cccnc1	5.4% (inactive)
Cc1cc(NC(=O)CSc2nc(-c3ccco3)cc(C(F)(F)F)n2)no1	-2.8% (inactive)
CCOc1ccc2[nH]c(=O)c(CN(Cc3ccccc3)C(=O)N3CCCC3)cc2c1	12.4% (inactive)
CCCc1[nH]nc2c1C(c1cccnc1)C(C#N)=C(N)O2 (stereo unspecified)	-4.7% (inactive)
CSc1nc2nccc(-c3ccc(Oc4ccccc4)cc3)n2n1	-15.1% (inactive)
COc1ccc(-c2cc(C(F)(F)F)nc(S(=O)(=O)CCC(=O)N3CCOCC3)n2)cc1	0% (inactive)
Nc1nnc(SCC(=O)NCc2ccc3c(c2)OCO3)s1	3.6% (inactive)
OCCCCNc1cccc2ccccc12	-7.2% (inactive)
O=c1c2ccccc2nnn1CSc1ncnc2ccccc12	-4% (inactive)
COC(=O)c1ccccc1NC(=O)c1ccc(-c2cccc(Cl)c2)o1	2.6% (inactive)
NC(=S)N/N=C/c1ccc(-c2ccc(Cl)c(Cl)c2)o1	-6.9% (inactive)
CC(C)(C)SCCNC(=O)CN(c1ccc(F)cc1)S(C)(=O)=O	-2.5% (inactive)
Cc1ccc(C)c(NC(=S)NC(NC(=O)Cc2cccc3ccccc23)C(Cl)(Cl)Cl)c1 (stereo unspecified)	-16% (inactive)
Cc1ccc(C)c(NC(=O)c2nnn(Cc3ccccc3)c2N)c1	-0.1% (inactive)
Cc1ccc(S(=O)(=O)N(CC(=O)NCc2ccco2)Cc2ccc(F)cc2)cc1	-16.6% (inactive)
CNC(=O)c1ccccc1NC(=O)c1ccco1	0.5% (inactive)
Cc1cccc(CS(=O)(=O)c2nnc([C@H](Cc3ccccc3)NC(=O)OC(C)(C)C)o2)c1	-5% (inactive)
O=S(=O)(Cc1ccccc1Cl)N1CCN(Cc2ccc3c(c2)OCO3)CC1	41.5% (inactive)

Compound	inhibition
CCCCN(C)CCCNC(=O)c1ccc2c(c1)NC(=O)C(N1CCOCC1)S2 (stereo unspecified)	5.4% (inactive)
Cc1ccc(F)cc1NC(=O)c1ccc2c(c1)OCO2	-1.6% (inactive)
Cc1ccc(S(=O)(=O)Nc2cc(C(=O)NCCN3CCCC3)ccc2N2CCCCC2)cc1	-7.7% (inactive)
O=C(Nc1ccccc1)c1nnsc1S(=O)c1ccc(Cl)cc1 (stereo unspecified)	-0.9% (inactive)
Cc1cccc(OCCN2CSC(=S)N(C)C2)c1	2.2% (inactive)
O=C(O)c1cccc(S(=O)(=O)Nc2ccccc2Cl)c1	-2.5% (inactive)
COC(=O)COc1ccc(=O)n(-c2ccccc2)n1	-8.8% (inactive)
COc1ccccc1OCCn1cc(C(=O)c2ccco2)c2ccccc21	3.7% (inactive)
O=C(Nc1cccnc1)c1coc(=O)c2ccccc12	8% (inactive)
COc1ccccc1-c1cc(C(F)(F)F)nc(S(=O)(=O)CCCC(=O)N2CCCCC2C)n1 (stereo unspecified)	7.4% (inactive)
Cc1ccccc1Cn1nc(C)c(NC(=O)c2cc(-c3cccs3)on2)c1C	3.8% (inactive)
O=C(Cc1ccc(-n2cccc2)cc1)NC1CCCCCC1	-6.9% (inactive)
CCC(C)Oc1cccc(OCCCCN2C(=O)NC(C)(C)C2=O)c1 (stereo unspecified)	-13.9% (inactive)
Cc1c(C(=O)N2CCN(c3ccccc3F)CC2)sc2ncn(CC(=O)N3CCOCC3)c(=O)c12	-3.2% (inactive)
O=C(CF)NC(Nc1cccc2cccnc12)C(Cl)(Cl)Cl (stereo unspecified)	-8.8% (inactive)
CCC(=O)Nc1cccc(NC(=O)c2cc3ccccc3o2)c1	-5.6% (inactive)
CCN1CCC2(CC1)C(C#N)=C(N)Oc1c2sc2nc(C)cc(C)c12	-0.7% (inactive)
Cc1cc(/C=C2\SC(=Nc3ccc(F)cc3)NC2=O)c(C)n1-c1ccc(S(N)(=O)=O)cc1	-17.9% (inactive)
O=C(Nc1ccccc1)N1CCC(c2ccccc2)C1 (stereo unspecified)	-9.2% (inactive)
CC(=O)N1CN2CN(C(C)=O)CC(C(=O)c3ccccc3)(C2)C1	-10.6% (inactive)
COc1ccccc1N(C)S(=O)(=O)c1ccc(C(=O)NCC(C)C)cc1	2.3% (inactive)
O=C(N/N=C/c1ccncc1)c1ccccc1	1.1% (inactive)
Cc1ccc(CSc2nc3ccccc3cc2C=O)cc1	-4% (inactive)
COC(=O)c1sccc1NC(=O)CCC1CCCC1	-0.4% (inactive)
CCOc1ccc(N2C(=O)CSC2c2ccncc2)cc1 (stereo unspecified)	4.4% (inactive)

Compound	inhibition
C=CCn1c(N)c(C(=O)OCC(C)C)c2nc3ccccc3nc21	-0.2% (inactive)
O=C1C(=O)c2ccccc2-c2ccccc21	-13.5% (inactive)
COc1ccccc1-n1cnc2cc(NCc3ccco3)ccc21	10.7% (inactive)
CSc1ccc(CNC2CN3CCC2CC3)cc1 (stereo unspecified)	1.5% (inactive)
Nc1ccc2c3c(cccc13)CC2	-5.4% (inactive)
Cc1oc(-c2ccc(Cl)cc2)cc1-c1nn2c(-c3ccoc3C)nnc2s1	0.3% (inactive)
CCOC(=O)c1oc2ccccc2c1NC(=O)Cc1cccs1	0.3% (inactive)
O=C(c1ccc([N+](=O)[O-])cc1)N(Cc1ccc(Cl)cc1)N1C(=O)CCCC1=O	-0.3% (inactive)
O=C1C(Cc2ccccc2)NC(=S)N1c1ccccc1 (stereo unspecified)	3.1% (inactive)
O=C1Nc2ccc(S(=O)(=O)N3CCOCC3)c3cccc1c23	0.5% (inactive)
CC(=O)c1c(C)oc2ccc(N(C(C)=O)S(=O)(=O)c3ccc(Cl)c([N+](=O)[O-])c3)cc12	-11.2% (inactive)
Cc1c(Cl)cccc1-n1ccnc1SCC(=O)O	2.2% (inactive)
COc1ccc(S(=O)(=O)n2ccc(-c3ccc(OCCN(C)c4ccccn4)cc3)n2)cc1	11.9% (inactive)
CN1Cc2cc(C(=O)c3cc(Cl)cc(CSc4ncccn4)c3O)cnc2NC1=O	10.6% (inactive)
C[n+]1ccc(/C=C/c2ccc(Br)cc2)cc1	7.4% (inactive)
CCNC(=O)CCn1nc(-c2ccc(Cl)cc2)c2ccccc2c1=O	-0.2% (inactive)
COc1cc2c(O)c3c(c(-c4ccc5c(c4)OCO5)c2cc1OC)C(=O)OC3	1.5% (inactive)
COc1cc2c(cc1OC)CN(C(=O)C(C)(C)C)CC2	-1.3% (inactive)
COc1ccc(-c2cc3ccc(OCc4nn[nH]n4)cc3oc2=O)cc1OC	2.8% (inactive)
Cc1ccc(Cl)cc1NC1=C/C(=N\S(=O)(=O)c2cccs2)c2ccccc2C1=O	-8% (inactive)
O=S(=O)(c1ccc(Cl)cc1)c1snnc1-c1ccccc1	9.2% (inactive)
CCC(=O)c1c[nH]c(C(=O)NCC2CCCO2)c1 (stereo unspecified)	-0.5% (inactive)
CC(C)CN(C(=O)COC(=O)CCc1c[nH]c2ccccc12)C1CCS(=O)(=O)C1 (stereo unspecified)	-23.6% (inactive)
COc1ccc(CN2C(=O)[C@@H]3C(c4ccc(F)cc4)=NO[C@@H]3C2=O)cc1	6.5% (inactive)
CCOC(=O)c1cc2c(ccn2C)n1Cc1ccccc1C	2.4% (inactive)

Compound	inhibition
O=Cc1cc2ccccc2nc1SCc1ccc(Cl)cc1	8.6% (inactive)
Cc1cc(N2CCC(C)CC2)nc(-n2nc(C)cc2C)n1	4.7% (inactive)
O=C(/C(=C/c1ccc(Cl)cc1)c1nc2ccccc2[nH]1)c1cccs1	-2.9% (inactive)
O=S(=O)(c1ccc(Cl)c(Cl)c1)c1snnc1-c1ccccc1	5.7% (inactive)
CCOC(=O)C1=C(CSc2nc3c(cc2C#N)CN(C)CC3)OC(N)=C(C#N)C1c1ccccc1 (stereo unspecified)	1.4% (inactive)
CC(=O)c1c(C(C)=O)c(C)n(NC(=O)c2ccccc2O)c1C	-15.8% (inactive)
C/C(=N\O)c1ccc2c3ccccc3n(C)c2c1	-20.9% (inactive)
CCOC(=O)c1ccc(N2C(=O)CC(N3CCC(O)(c4ccc(Br)cc4)CC3)C2=O)cc1 (stereo unspecified)	5.5% (inactive)
COc1ccc2[nH]c(=O)c(CN(C(=O)c3ccncc3)C(C)C)cc2c1	-5.6% (inactive)
COC(=O)CN(c1ccc(F)cc1)S(=O)(=O)c1ccc2c(c1)OCCO2	10.7% (inactive)
OC1(c2cccc(C(F)(F)F)c2)CCN(c2ncnc3c2[nH]c2ccc(F)cc23)CC1	7.8% (inactive)
O=C(Cn1cccc1C(=O)c1ccccc1)NCCN1CCOCC1	-4.4% (inactive)
Cc1c(CCO)c(=O)n(-c2ccccc2)n1S(=O)(=O)c1ccc(Cl)cc1	-11% (inactive)
CCOC(=O)C1=C(SCC)c2cc3c(n2C1=O)CCCC3	8.4% (inactive)
O=C(Oc1ccc2ccc(=O)oc2c1)N1CCOCC1	-7.8% (inactive)
CCOc1cc(C(=O)Nc2cccc3ncccc23)cc(OCC)c1OCC	-20.6% (inactive)
CN1C(=O)N(C)C(=O)C2(Cc3ccccc3N3CCOCC32)C1=O (stereo unspecified)	-1.2% (inactive)
Cc1cccc(N=C2NC(=O)CS2)c1C	7% (inactive)
c1ccc(-c2nnc(CSc3nncs3)o2)cc1	-7.1% (inactive)
O=c1c2c3c(sc2nc2n1CCC2)CCC3	-14.6% (inactive)
Nn1c(SCC(=O)Nc2ccc3c(c2)OCCO3)nnc1C(F)(F)F	-22.1% (inactive)
CC(=O)c1cccc(NS(=O)(=O)c2c(C)noc2C)c1	-13.9% (inactive)
CCCCCCOC(=O)NCC(O)c1ccccc1 (stereo unspecified)	9.1% (inactive)
COc1ccc(O)c(C=Nc2cc(C)on2)c1	-0.2% (inactive)
Cc1nnc(SCc2cn3ccsc3n2)n(N)c1=O	-0.8% (inactive)

Same assay, conditions: cell-based imaging, cytoskeleton assembly phenotype, high content; cell count; at 10 µM; stronger effect = lower value

Compound	cell count
Cc1cccc2cc(C#N)c(SCC(=O)N3CC(=O)Nc4ccccc43)nc12	67.8%
